In test [1] the test system is NCI-H1299. Nature of the test: Induction of DNA damage in human H1299 cells at 10 uM incubated for 24 hrs by single cell electrophoresis-based alkaline comet assay. Type of test: functional.
In the next test the test system is HeLa. The test can be described thus: Antiproliferative activity against human HeLa cells incubated for 72 hrs by MTT assay. The format is functional, cell-based.
For test [2], the system named is NCI-H1299. The test can be described thus: Induction of apoptosis in human H1299 cells assessed as late apoptotic cells level at 5 uM annexin V and propidium iodide double staining based flow cytometry (reference value: 1.9 +/- 0.12%). Type of test: functional.
Another test deals with SAS. Nature of the test: Antiproliferative activity against human SAS cells incubated for 72 hrs by MTT assay. The format is functional, cell-based. (Tetrazolium assays rely on reduction of a dye to a coloured formazan, in cell work by metabolically active cells.)
Test [3] concerns NCI-H1299. Nature of the test: Induction of apoptosis in human H1299 cells assessed as early apoptotic cells level at 1 uM annexin V and propidium iodide double staining based flow cytometry (reference value: 0.4 +/- 0.17%). The format is functional.
The test system of test [4] is NCI-H1299. Nature of the test: Induction of apoptosis in human H1299 cells assessed as early apoptotic cells level at 5 uM annexin V and propidium iodide double staining based flow cytometry (reference value: 0.4 +/- 0.17%). Type of test: functional. A general note: A flow cytometer gives signals particle by particle.
Test [5] has as its system NCI-H1299. Nature of the test: Induction of apoptosis in human H1299 cells assessed as late apoptotic cells level at 10 uM annexin V and propidium iodide double staining based flow cytometry (reference value: 1.9 +/- 0.12%). Type of test: functional.
The subject of test [6] is NCI-H1299. The test can be described thus: Antiproliferative activity against human H1299 cells incubated for 72 hrs by MTT assay. Type of test: functional, cell-based. The following applies: NCI-H1299, 72 h.
Another test concerns AGS. Nature of the test: Antiproliferative activity against human AGS cells incubated for 72 hrs by MTT assay. Type of test: functional, cell-based.
The test system of test [7] is NCI-H1299. Nature of the test: Induction of apoptosis in human H1299 cells assessed as early apoptotic cells level at 10 uM annexin V and propidium iodide double staining based flow cytometry (reference value: 0.4 +/- 0.17%). Type of test: functional.
The nature of test [8]: Antiproliferative activity against human 786-O cells incubated for 72 hrs by MTT assay. Type of test: functional, cell-based. The following applies: 786-0, 72 h.
The nature of test [9]: Antiproliferative activity against human SKHep cells incubated for 72 hrs by MTT assay. The format is functional, cell-based.
A further test concerns MDA-MB-231. The test can be described thus: Antiproliferative activity against human MDA-MB-231 cells incubated for 72 hrs by MTT assay. To be noted: MDA-MB-231, 72 h. The format is functional, cell-based.
In test [10] the test system is NCI-H1299. The test can be described thus: Induction of apoptosis in human H1299 cells assessed as late apoptotic cells level at 1 uM annexin V and propidium iodide double staining based flow cytometry (reference value: 1.9 +/- 0.12%). Type of test: functional.
Test [11] deals with NCI-H1299. Nature of the test: Induction of apoptosis in human H1299 cells assessed as early apoptotic cells level at 10 uM annexin V and propidium iodide double staining based flow cytometry (reference value: 0.74 +/- 0.31%). Type of test: functional.
A short description of test [12]: Reduction in p-Akt protein expression in human H1299 cells at 1 to 10 uM incubated for 24 hrs by Western blotting method. Type of test: functional, cell-based. To be noted: NCI-H1299.
Test [13] concerns NCI-H1299. The test can be described thus: Induction of apoptosis in human H1299 cells assessed as late apoptotic cells level at 1 uM annexin V and propidium iodide double staining based flow cytometry (reference value: 2.62 +/- 0.75%). Type of test: functional.
Test [14] relates to NCI-H1299. The test can be described thus: Induction of apoptosis in human H1299 cells assessed as increase in BAX cleavage at 1 to 10 uM incubated for 24 hrs by Western blotting method. The format is functional, cell-based. Background: Immunoblotting shows a protein as a band on a membrane.
The subject of another test is Detroit 551. Nature of the test: Antiproliferative activity against human Detroit 551 cells incubated for 72 hrs by MTT assay. Type of test: functional, cell-based. The following applies: Detroit 551, 72 h.
Test [15] relates to NCI-H1299. The test can be described thus: Induction of apoptosis in human H1299 cells assessed as increase in caspase-7 activation at 1 to 10 uM incubated for 24 hrs by Western blotting method. Type of test: functional, cell-based.
Test [16] concerns NCI-H1299. Nature of the test: Induction of apoptosis in human H1299 cells assessed as increase in caspase-3 activation at 1 to 10 uM incubated for 24 hrs by Western blotting method. Type of test: functional, cell-based.
The nature of test [17]: Reduction in PTEN protein expression in human H1299 cells at 1 to 10 uM incubated for 24 hrs by Western blotting method. Type of test: functional, cell-based. To be noted: NCI-H1299.
Test [18] deals with NCI-H1299. Nature of the test: Induction of apoptosis in human H1299 cells assessed as decrease in Bcl2 expression at 1 to 10 uM incubated for 24 hrs by Western blotting method. Type of test: functional, cell-based.
Test [19] is described as follows: Reduction in SIRT1 protein expression in human H1299 cells at 1 to 10 uM incubated for 24 hrs by Western blotting method. Type of test: functional, cell-based. The following applies: NCI-H1299.
Test [20] has as its system NCI-H1299. Nature of the test: Induction of apoptosis in human H1299 cells assessed as increase in PARP cleavage at 1 to 10 uM incubated for 24 hrs by Western blotting method. The format is functional, cell-based.
Test [21] relates to NCI-H1299. The test can be described thus: Induction of DNA damage in human H1299 cells at 5 uM incubated for 24 hrs by single cell electrophoresis-based alkaline comet assay. Type of test: functional.
A short description of test [22]: Reduction in FOXO3a protein expression in human H1299 cells at 1 to 10 uM incubated for 24 hrs by Western blotting method. The format is functional, cell-based. The following applies: NCI-H1299.
Test [23] concerns NCI-H1299. The test can be described thus: Induction of apoptosis in human H1299 cells assessed as early apoptotic cells level at 1 uM annexin V and propidium iodide double staining based flow cytometry (reference value: 0.74 +/- 0.31%). Type of test: functional.
The next test has as its system Nucleic Acid. The test can be described thus: Induction of DNA intercalation of negative supercoiled Escherichia coli pBR322 DNA at 10 uM incubated for 12 hrs by ethidium bromide staining based DNA mobility assay. Type of test: nucleic-acid assay.
Test [24] relates to NCI-H1299. Nature of the test: Induction of apoptosis in human H1299 cells assessed as late apoptotic cells level at 5 uM annexin V and propidium iodide double staining based flow cytometry (reference value: 2.62 +/- 0.75%). The format is functional.
Test [25] relates to NCI-H1299. Nature of the test: Induction of apoptosis in human H1299 cells assessed as early apoptotic cells level at 5 uM annexin V and propidium iodide double staining based flow cytometry (reference value: 0.74 +/- 0.31%). Type of test: functional.
Test [26] relates to NCI-H1299. Nature of the test: Induction of apoptosis in human H1299 cells assessed as late apoptotic cells level at 10 uM annexin V and propidium iodide double staining based flow cytometry (reference value: 2.62 +/- 0.75%). Type of test: functional.
A short description of test [27]: Reduction in HDAC6 protein expression in human H1299 cells at 1 to 10 uM incubated for 24 hrs by Western blotting method. The format is functional, cell-based. To be noted: NCI-H1299.

Activity calls are given as the source filed them. The calls are words filed in the database; no cut-off is given here. A value given as a limit tells only on which side of the number the result lay.

In general, IC50 refers to the midpoint of a concentration-inhibition curve.

In the case of `COc1ccc2c(c1)C(=O)c1c-2c(N2CCN(CC3CO3)CC2)nc2ccccc12` (stereo not given), the outcome in the test with NCI-H1299 [1] was Active. In addition, the IC50 was 10.7 µM in the test with HeLa; more than 30 µM with SAS; 7.92 µM with NCI-H1299 [6]; 21.4 µM in the test on AGS; 19.1 µM in [8]; more than 30 µM in test [9]. Also, in the test with MDA-MB-231, half-maximal inhibition (IC50) was put at 7.65 µM. The Activity is on record as 4.98% with NCI-H1299 [2]; 1.83% in the test with NCI-H1299 [3]; 1.57% in the test on NCI-H1299 [4]; 7.57% with NCI-H1299 [5]; 3.29% with NCI-H1299 [7]; 4.51% in the test with NCI-H1299 [10].
As to `COc1ccc2c(c1)/C(=N\OCC1CO1)c1c-2c(N2CCN(CC3CO3)CC2)nc2ccccc12` (stereo not given), the Activity in the test with NCI-H1299 [11] is listed as 1.6%; in the test with NCI-H1299 [13], 4.5%; in the test with NCI-H1299 [23] it was 1.38%; in the test with NCI-H1299 [24], 8.25%; in the test with NCI-H1299 [25], 2.45%; in the test with NCI-H1299 [26], 17.9%. Also, the outcome (in test [12]; with NCI-H1299 [14]; with NCI-H1299 [15]; in the test with NCI-H1299 [16]; in test [17]; in the test with NCI-H1299 [18]) was Active. Besides, the result (in [19]; with NCI-H1299 [20]; in the test on NCI-H1299 [21]; in test [22]; with Nucleic Acid; in test [27]) was Active. Besides, the half-inhibitory concentration (IC50) with Detroit 551 was found to be 7.95 µM; with HeLa it was 0.54 µM; in the test on SAS it was 6.2 µM; in the test on NCI-H1299 [6], 1.18 µM; with AGS it was 8.76 µM; in test [8], 8.8 µM. Besides, the half-maximal inhibitory concentration (IC50) in [9] worked out at 0.99 µM; in the test with MDA-MB-231, 0.79 µM.

The record behind these values is ChEMBL document CHEMBL3585245, “Synthesis and antiproliferative evaluation of 9-methoxy-6-(piperazin-1-yl)-11H-indeno[1,2-c]quinoline-11-one derivatives. Part 4” (Medchemcomm, 2014).
